Calls of active or inactive are those of the source. The rule behind the calls is not given here.
How the values were obtained:
Helicoverpa zea [1] = test: Insecticidal activity against corn ear worm first instar larvae assessed as reduction in growth at 200 ppm administered with standard test diet relative to control; format: functional; set-up: scale not given: the % may be the effect or the level left
Helicoverpa zea [2] = test: Insecticidal activity against corn ear worm first instar larvae assessed as mortality at 200 ppm administered with standard test diet; format: functional
Helicoverpa zea [3] = test: Insecticidal activity against corn ear worm first instar larvae assessed as cuticle/exoskeleton rupture in dead larvae at 200 ppm administered with standard test diet; format: functional, organism-based
Helicoverpa zea [4] = test: Insecticidal activity against corn ear worm first instar larvae assessed as laterally shriveled in dead larvae at 200 ppm administered with standard test diet; format: functional, organism-based
Helicoverpa zea [5] = test: Insecticidal activity against corn ear worm first instar larvae assessed as blackened in dead larvae at 200 ppm administered with standard test diet; format: functional, organism-based
Helicoverpa zea [6] = test: Insecticidal activity against corn ear worm first instar larvae assessed as bloating of area just prior to rear body in surviving larvae at 200 ppm administered with standard test diet; format: functional, organism-based
Carpophilus = test: Antifeedant activity against Carpophilus hemipterus adult assessed as reduction in feeding rate at 100 ppm; format: functional
[7] = Cytotoxicity against human NCI60 cells; format: functional

CC1(C)C=Cc2c(ccc3c2NC(=O)[C@@]32[C@H](O)[C@@]34NC(=O)[C@]5(CCCN5C3=O)C[C@H]4C2(C)C)O1 [SCLEROTIAMIDE]
Activity (Helicoverpa zea [1]): 98%
Activity (Helicoverpa zea [2]): 46%
Activity (Helicoverpa zea [3]): Active
Activity (Helicoverpa zea [4]): Active
Activity (Helicoverpa zea [5]): Active
Activity (Helicoverpa zea [6]): Active
GI50 (Carpophilus): > 25 µg/mL
Activity [7]: 44%
